Measured values as given in patent US20120258922A1, “S[…] LOW-DENSITY L[…]” (Seminis Vegetable Seeds, Inc., priority 2011, published 2012).
Where two headings read alike, the source gives them in different places.

How the values were obtained:
[1] = system: human monocyte-derived macrophages (HMDM); experiment: Macrophage-mediated LDL oxidation in HMDM (oxidized LDL by ELISA and/or TBARS); assay type: cell-based; settings: for concentrations that significantly inhibit the oxidation of LDL: agent alone, 100 μg/ml LDL, p<0.01 compared to LDL control (FIG. 1, FIG. 2); for concentrations that significantly inhibit the oxidation of LDL / maximum inhibition of LDL oxidation: HMDM; for maximum inhibition of LDL oxidation: each agent individually, dose-dependent, compared to the LDL control, 100 μg/ml LDL (FIG. 1, FIG. 2); for IC50: α-tocopherol alone
Method: Raw broccoli extracts (“BE” or “B. Extract”) were prepared from four hybrids. […] 50 grams of extract were mixed with equal parts 50mM MES buffer pH 6.0 solution. Samples were blended for approximately 1 minute until homogeneous then maintained at room temperature for 10 min. Filtrates from samples were diluted 1:40 with 50 mM MES buffer for the assay. […] Assays with the broccoli extracts were performed as described above.

[2] = system: human monocyte-derived macrophages (HMDM); settings: each agent individually, at lower doses; LDL-depleted HMDM (FIGS. 8, 9)
Text: (§1) Blood was drawn and collected from healthy human volunteers, and LDL was isolated by density gradient centrifugation following methods known to one of ordinary skill in the art (e.g., Napolitano et al., Int J Biochem Cell Biol, 35:1127-43, 2002). Monocytes were also isolated from the blood and separated by Ficoll Hypaque centrifugation also according to known methods (e.g., Napolitano et al., Eur J Clin Invest, 35:482-90, 2005), followed by negative magnetic separation and maintained in culture with 20% autologous serum or F-10 medium for 5-7 days to differentiate into human monocyte-derived macrophages (HMDM). […] Following the pre-incubation step, LDL (100 μg/ml) was added and the cells were incubated for 24 hours. Supernatants were used for assessing oxidized LDL by ELISA (Mercodia) and/or TBARS (“Thiobarbituric Acid Reactive Substances”) as described previously (Devaraj et al., J Clin Invest 98:756, 1996). To assess the glutathione:glutathione disulfide (GSH:GSSG) ratio as an indicator of the redox poise of the cell, cells were dislodged by PBS-EDTA and were lysed (Pierce MPER) after a freeze-thaw cycle. After sonication and centrifugation, the cell pellet was stored at −80° C. until the relative levels of GSH and GSSG were assayed (Oxis Biochemicals). […]

quinone reductase = settings: for QUINONE REDUCTASE ACTIVITY, Expt. 1 / QUINONE REDUCTASE ACTIVITY, Expt. 2 / QUINONE REDUCTASE ACTIVITY, Expt. 3 / QUINONE REDUCTASE ACTIVITY, Average: HMDM + LDL; for QUINONE REDUCTASE ACTIVITY, Average: average of Expt. 1-3; for quinone reductase activity (in words): each agent individually, LDL-treated HMDM (Table 1, FIGS. 10A,B)
Text: Blood was drawn and collected from healthy human volunteers, and LDL was isolated by density gradient centrifugation following methods known to one of ordinary skill in the art (e.g., Napolitano et al., Int J Biochem Cell Biol, 35:1127-43, 2002). Monocytes were also isolated from the blood and separated by Ficoll Hypaque centrifugation also according to known methods (e.g., Napolitano et al., Eur J Clin Invest, 35:482-90, 2005), followed by negative magnetic separation and maintained in culture with 20% autologous serum or F-10 medium for 5-7 days to differentiate into human monocyte-derived macrophages (HMDM). […] Following the pre-incubation step, LDL (100 μg/ml) was added and the cells were incubated for 24 hours. Supernatants were used for assessing oxidized LDL by ELISA (Mercodia) and/or TBARS (“Thiobarbituric Acid Reactive Substances”) as described previously (Devaraj et al., J Clin Invest 98:756, 1996). To assess the glutathione:glutathione disulfide (GSH:GSSG) ratio as an indicator of the redox poise of the cell, cells were dislodged by PBS-EDTA and were lysed (Pierce MPER) after a freeze-thaw cycle. After sonication and centrifugation, the cell pellet was stored at −80° C. until the relative levels of GSH and GSSG were assayed (Oxis Biochemicals). Quinone reductase activity was assayed following the method described previously (J. Fahey et al., Methods in Enzymology 382, 243-258, 2004).

NQO1 = experiment: Inhibition of LDL oxidation in HMDM with SiNQO1 silencing; settings: 100 μg/ml LDL (FIG. 12)
Text: as §1

With C[S+]([O-])CCCCN=C=S (stereo not drawn) [sulforaphane] the “effect on LDL oxidation” value ([1]; 2 μM sulforaphane individually applied (FIG. 11)) was “reduced LDL oxidation”, the “concentrations that significantly inhibit the oxidation of LDL” value [1] was “greater than 2 μM” and the “maximum inhibition of LDL oxidation” value [1] was 58%. The “GSH:GSSG ratio” value [2] was “restored the ratio to normal levels”, the “QUINONE REDUCTASE ACTIVITY, Expt. 1” value (quinone reductase; 2 μM sulforaphane) was 151.23 nmol/min/mg protein and the “QUINONE REDUCTASE ACTIVITY, Expt. 2” value (quinone reductase; 2 μM sulforaphane) was 124.23 nmol/min/mg protein. The “QUINONE REDUCTASE ACTIVITY, Expt. 3” value (quinone reductase; 2 μM sulforaphane) was 104.56 nmol/min/mg protein, the “QUINONE REDUCTASE ACTIVITY, Average” value (quinone reductase; 2 μM sulforaphane) was 126.6733 nmol/min/mg protein and the “quinone reductase activity (in words)” value (quinone reductase) was “restored enzymatic activity to normal levels”.

Cc1c(C)c2c(c(C)c1O)CC[C@@](C)(CCC[C@H](C)CCC[C@H](C)CCCC(C)C)O2 [α-tocopherol] was tested, and the “effect on LDL oxidation” value ([1]; 25 μM α-tocopherol individually applied (FIG. 11)) was “reduced LDL oxidation”, the “concentrations that significantly inhibit the oxidation of LDL” value [1] was “greater than 12.5 μM” and the “maximum inhibition of LDL oxidation” value [1] was 58%. The IC50 ([1]; FIG. 5 experiment) was 53.1 µM, the IC50 ([1]; FIG. 7 experiment) was 23.6 µM and the “GSH:GSSG ratio” value [2] was “restored the ratio to normal levels”. For the same compound, the “QUINONE REDUCTASE ACTIVITY, Expt. 1” value (quinone reductase; 6.25 μM α-tocopherol) was 59.87 nmol/min/mg protein, the “QUINONE REDUCTASE ACTIVITY, Expt. 2” value (quinone reductase; 6.25 μM α-tocopherol) was 68.97 nmol/min/mg protein and the “QUINONE REDUCTASE ACTIVITY, Expt. 3” value (quinone reductase; 6.25 μM α-tocopherol) was 41.12 nmol/min/mg protein. For the same compound, the “QUINONE REDUCTASE ACTIVITY, Average” value (quinone reductase; 6.25 μM α-tocopherol) was 56.65 nmol/min/mg protein, the “QUINONE REDUCTASE ACTIVITY, Expt. 1” value (quinone reductase; 12.5 μM α-tocopherol) was 66.45 nmol/min/mg protein and the “QUINONE REDUCTASE ACTIVITY, Expt. 2” value (quinone reductase; 12.5 μM α-tocopherol) was 69.47 nmol/min/mg protein. For the same compound, the “QUINONE REDUCTASE ACTIVITY, Expt. 3” value (quinone reductase; 12.5 μM α-tocopherol) was 42.25 nmol/min/mg protein, the “QUINONE REDUCTASE ACTIVITY, Average” value (quinone reductase; 12.5 μM α-tocopherol) was 59.39 nmol/min/mg protein and the “QUINONE REDUCTASE ACTIVITY, Expt. 1” value (quinone reductase; 25 μM α-tocopherol) was 68.98 nmol/min/mg protein. The “QUINONE REDUCTASE ACTIVITY, Expt. 2” value (quinone reductase; 25 μM α-tocopherol) was 64.56 nmol/min/mg protein, the “QUINONE REDUCTASE ACTIVITY, Expt. 3” value (quinone reductase; 25 μM α-tocopherol) was 65.14 nmol/min/mg protein and the “QUINONE REDUCTASE ACTIVITY, Average” value (quinone reductase; 25 μM α-tocopherol) was 66.23 nmol/min/mg protein. For the same compound, the “QUINONE REDUCTASE ACTIVITY, Expt. 1” value (quinone reductase; 50 μM α-tocopherol) was 77.14 nmol/min/mg protein, the “QUINONE REDUCTASE ACTIVITY, Expt. 2” value (quinone reductase; 50 μM α-tocopherol) was 74.19 nmol/min/mg protein and the “QUINONE REDUCTASE ACTIVITY, Expt. 3” value (quinone reductase; 50 μM α-tocopherol) was 66.23 nmol/min/mg protein. For the same compound, the “QUINONE REDUCTASE ACTIVITY, Average” value (quinone reductase; 50 μM α-tocopherol) was 72.52 nmol/min/mg protein, the “quinone reductase activity (in words)” value (quinone reductase) was “only a modest effect” and the “effectiveness at inhibiting LDL oxidation after NQO1 silencing” value (NQO1) was “reduced but not complete reduction of the effectiveness”.
